Among the data in US7323469B2, “7H-pyrrolo[2,3-d]pyrimidine derivatives” (Novartis AG, priority 2001, dated 2008) are melting point values, retold here.

One may read the melting point as the temperature, or range, at which the solid turns liquid.

With `Cc1cccc(CNc2ncnc3[nH]c(-c4ccc(CN5CCCC5)cc4)cc23)c1` [Example 107h, (3-Methyl-benzyl)-[6-(4-pyrrolidin-1-ylmethyl-phenyl)-7H-pyrrolo[2,3-d]pyrimidin-4-yl]-amine], the melting point is 241 to 243 °C.
Under `C[C@@H](Nc1ncnc2[nH]c(-c3cccc(CN4CCN(C)CC4)c3)cc12)c1ccccc1` [Example 29, {6-[3-(4-Methyl-piperazin-1-ylmethyl)-phenyl]-7H-pyrrolo[2,3-d]pyrimidin-4-yl}-((R)-1-phenyl-ethyl)-amine] stands 112 to 115 °C; under `CN1CCN(Cc2ccc(-c3cc4c(NCc5cccc(Cl)c5)ncnc4[nH]3)cc2)CC1` [Example 89, (3-Chloro-benzyl)-{6-[4-(4-methyl-piperazin-1-ylmethyl)-phenyl]-7H-pyrrolo[2,3-d]pyrimidin-4-yl}-amine], 235 to 237 °C; under `Clc1ccc(Cl)c(CNc2ncnc3[nH]c(-c4ccc(CN5CCCC5)cc4)cc23)c1` [Example 103, (2,5-Dichloro-benzyl)-[6-(4-pyrrolidin-1-ylmethyl-phenyl)-7H-pyrrolo[2,3-d]pyrimidin-4-yl]-amine], 266 to 268 °C.
For `CC1CN(Cc2ccc(-c3cc4c(Nc5ccc(F)c(Cl)c5)ncnc4[nH]3)cc2)CC(C)N1` (stereo not shown) [Example 8, (3-Chloro-4-fluoro-phenyl)-{6-[4-(3,5-dimethyl-piperazin-1-ylmethyl)-phenyl]-7H-pyrrolo[2,3-d]pyrimidin-4-yl}-amine], the melting point fell in the range of 261 to 263 °C.
`COc1cccc(CNc2ncnc3[nH]c(-c4ccc(CN5CCN(C)CC5)cc4)cc23)c1` [Example 107b, (3-Methoxy-benzyl)-{6-[4-(4-methyl-piperazin-1-ylmethyl)-phenyl]-7H-pyrrolo[2,3-d]pyrimidin-4-yl}-amine]: the melting point is 225 to 227 °C.
`Fc1ccc(Nc2ncnc3[nH]c(-c4cccc(CN5CCOCC5)c4)cc23)cc1Cl` [Example 39, (3-Chloro-4-fluoro-phenyl)-[6-(3-morpholin-4-ylmethyl-phenyl)-7H-pyrrolo[2,3-d]pyrimidin-4-yl]-amine] registered a melting point of 290 to 292 °C.
For the molecule `Fc1ccc(Nc2ncnc3[nH]c(-c4ccc(CNCCN5CCOCC5)cc4)cc23)cc1Cl` [Example 8b, (3-Chloro-4-fluoro-phenyl)-(6-{4-[(2-morpholin-4-yl-ethyl-amino)-methyl]-phenyl}-7H-pyrrolo[2,3-d]pyrimidin-4-yl)-amine], the melting point is 224 to 226 °C.
With `CCN(CC)CCC(=O)NCc1ccc(-c2cc3c(Nc4ccc(F)c(Cl)c4)ncnc3[nH]2)cc1` [Example 58, N-{4-[4-(3-Chloro-4-fluoro-phenylamino)-7H-pyrrolo[2,3-d]pyrimidin-6-yl]-benzyl}-3-diethylamino-propionamide], the melting point lay within 229 to 232 °C.
Molecule `CN(C)CC(=O)NCc1ccc(-c2cc3c(Nc4ccc(F)c(Cl)c4)ncnc3[nH]2)cc1` [Example 46, N-{4-[4-(3-Chloro-4-fluoro-phenylamino)-7H-pyrrolo[2,3-d]pyrimidin-6-yl]-benzyl}-2-dimethylamino-acetamide] yielded a melting point of 278 to 282 °C.
The molecule `CN(C)Cc1ccc(-c2cc3c(Nc4ccc(F)c(Cl)c4)ncnc3[nH]2)cc1` [Example 1, (3-Chloro-4-fluoro-phenyl)-[6-(4-dimethylaminomethyl-phenyl)-7H-pyrrolo[2,3-d]pyrimidin-4-yl]-amine] returned a melting point of 274 to 276 °C.
Take `C[C@@H](Nc1ncnc2[nH]c(-c3ccc(CN4CCN(C)CC4)cc3)cc12)c1ccc(Cl)cc1` [Example 77, [(R)-1-(4-Chloro-phenyl)-ethyl]-{6-[4-(4-methyl-piperazin-1-ylmethyl)-phenyl]-7H-pyrrolo[2,3-d]pyrimidin-4-yl}-amine]: the melting point lay in the range of 232 to 233 °C.
For the molecule `CCN1CCN(CC(=O)NCc2ccc(-c3cc4c(N[C@H](C)c5ccccc5)ncnc4[nH]3)cc2)CC1` [Example 45, 2-(4-Ethyl-piperazin-1-yl)-N-{4-[4-((R)-1-phenyl-ethylamino)-7H-pyrrolo[2,3-d]pyrimidin-6-yl]-benzyl}-acetamide], the melting point lay within 121 to 124 °C.
Regarding `C[C@@H](Nc1ncnc2[nH]c(-c3ccc(CNC(=O)CCN4CCCCC4)cc3)cc12)c1ccccc1` [Example 54, N-{4-[4-((R)-1-Phenyl-ethylamino)-7H-pyrrolo[2,3-d]pyrimidin-6-yl]-benzyl}-3-piperidin-1-yl-propionamide], the melting point was found to be 140 °C.
Under `O=C(NCc1ccc(-c2cc3c(Nc4ccc(F)c(Cl)c4)ncnc3[nH]2)cc1)c1ccccn1` [Example 59, Pyridine-2-carboxylic acid 4-[4-(3-chloro-4-fluoro-phenylamino)-7H-pyrrolo[2,3-d]pyrimidin-6-yl]-benzylamide] stands 340 to 342 °C; under `Clc1cccc(CNc2ncnc3[nH]c(-c4ccc(CN5CCCC5)cc4)cc23)c1` [Example 88, (3-Chloro-benzyl)-[6-(4-pyrrolidin-1-ylmethyl-phenyl)-7H-pyrrolo[2,3-d]pyrimidin-4-yl]-amine], 222 to 225 °C.
The figure for `CCN(CC)CCNCc1ccc(-c2cc3c(Nc4ccc(F)c(Cl)c4)ncnc3[nH]2)cc1` [Example 8c, N-{4-[4-(3-Chloro-4-fluoro-phenylamino)-7H-pyrrolo[2,3-d]pyrimidin-6-yl]-benzyl}-N′,N′-diethyl-ethane-1,2-diamine] is 229 to 231 °C; for `CCN1CCN(Cc2cccc(-c3cc4c(N[C@H](C)c5ccccc5)ncnc4[nH]3)c2)CC1` [Example 27, {6-[3-(4-Ethyl-piperazin-1-ylmethyl)-phenyl]-7H-pyrrolo[2,3-d]pyrimidin-4-yl}-((R)-1-phenyl-ethyl)-amine] it is 128 to 130 °C.
`CCN(CC)Cc1ccc(-c2cc3c(NCc4cc(Cl)ccc4Cl)ncnc3[nH]2)cc1` [Example 101, (2,5-Dichloro-benzyl)-[6-(4-diethylaminomethyl-phenyl)-7H-pyrrolo[2,3-d]pyrimidin-4-yl]-amine]: the melting point was 255 to 257 °C.
Consider `Clc1ccc(Cl)c(CNc2ncnc3[nH]c(-c4ccc(CN5CCOCC5)cc4)cc23)c1` [Example 99, (2,5-Dichloro-benzyl)-[6-(4-morpholin-4-ylmethyl-phenyl)-7H-pyrrolo[2,3-d]pyrimidin-4-yl]-amine], for which the melting point was in the range of 272 to 274 °C.
Take `CCN(CC)Cc1ccc(-c2cc3c(NCc4ccccc4Cl)ncnc3[nH]2)cc1` [Example 96, (2-Chloro-benzyl)-[6-(4-diethylaminomethyl-phenyl)-7H-pyrrolo[2,3-d]pyrimidin-4-yl]-amine]: the melting point was in the range of 257 to 258 °C.
Molecule `CN1CCN(Cc2cccc(-c3cc4c(Nc5ccc(F)c(Cl)c5)ncnc4[nH]3)c2)CC1` [Example 37, (3-Chloro-4-fluoro-phenyl)-{6-[3-(4-methyl-piperazin-1-ylmethyl)-phenyl]-7H-pyrrolo[2,3-d]pyrimidin-4-yl}-amine] displayed a melting point of 221 to 223 °C.
For `O=C(CN1CCCCC1)NCc1cccc(-c2cc3c(Nc4ccc(F)c(Cl)c4)ncnc3[nH]2)c1` [Example 66, N-{3-[4-(3-Chloro-4-fluoro-phenylamino)-7H-pyrrolo[2,3-d]pyrimidin-6-yl]-benzyl}-2-piperidin-1-yl-acetamide], the melting point is 252 to 254 °C.
As to `C[C@@H](Nc1ncnc2[nH]c(-c3ccc(CNC(=O)c4ccccn4)cc3)cc12)c1ccccc1` [Example 57, Pyridine-2-carboxylic acid 4-[4-((R)-1-phenyl-ethylamino)-7H-pyrrolo[2,3-d]pyrimidin-6-yl]-benzylamide], the melting point is 221 to 223 °C.
The molecule `CCN(CC)Cc1ccc(-c2cc3c(NCc4cccc(Cl)c4)ncnc3[nH]2)cc1` [Example 87, (3-Chloro-benzyl)-[6-(4-diethylaminomethyl-phenyl)-7H-pyrrolo[2,3-d]pyrimidin-4-yl]-amine] gave a melting point of 231 to 233 °C.
`CCN1CCN(Cc2ccc(-c3cc4c(NCc5cc(Cl)ccc5Cl)ncnc4[nH]3)cc2)CC1` [Example 97, (2,5-Dichloro-benzyl)-{6-[4-(4-ethyl-piperazin-1-ylmethyl)-phenyl]-7H-pyrrolo[2,3-d]pyrimidin-4-yl}-amine]: the melting point was 249 to 251 °C.
Turning to `COc1cc(CNc2ncnc3[nH]c(-c4ccc(CN5CCN(C)CC5)cc4)cc23)ccn1` [Example 125, (2-Methoxy-pyridin-4-ylmethyl)-{6-[4-(4-methyl-piperazin-1-ylmethyl)-phenyl]-7H-pyrrolo[2,3-d]pyrimidin-4-yl}-amine], the melting point lay within 211 to 212 °C.
Under `COc1ccc(Nc2ncnc3[nH]c(-c4cccc(CN5CCN(C)CC5)c4)cc23)cc1O` [Example 69, 2-Methoxy-5-{6-[3-(4-methyl-piperazin-1-ylmethyl)-phenyl]-7H-pyrrolo[2,3-d]pyrimidin-4-ylamino}-phenol] stands 251 to 252 °C; under `Cc1ccc(Nc2ncnc3[nH]c(-c4cccc(CN5CCN(C)CC5)c4)cc23)cc1O` [Example 67, 2-Methyl-5-{6-[3-(4-methyl-piperazin-1-ylmethyl)-phenyl]-7H-pyrrolo[2,3-d]pyrimidin-4-ylamino}-phenol], 256 to 258 °C; under `C[C@@H](Nc1ncnc2[nH]c(-c3ccc(CN(CCO)CCO)cc3)cc12)c1ccccc1` [Example 82, 2-((2-Hydroxy-ethyl)-{4-[4-((R)-1-phenyl-ethylamino)-7H-pyrrolo[2,3-d]pyrimidin-6-yl]-benzyl}-amino)-ethanol], 194 to 197 °C.
With `Clc1ccccc1CNc1ncnc2[nH]c(-c3ccc(CN4CCOCC4)cc3)cc12` [Example 93, (2-Chloro-benzyl)-[6-(4-morpholin-4-ylmethyl-phenyl)-7H-pyrrolo[2,3-d]pyrimidin-4-yl]-amine], the melting point fell in the range of 276 to 279 °C.
